Experimental data as given in US5236926A, “9-substituted-8-halo or -8-hydroxy-9-deazaguanines as inhibitors or PNP for pharmaceutical compositions” (Warner-Lambert Company, priority 1992, dated 1993).
pIC50: −log10 of the molar value.

What was measured:
[1] = target: T1, purine nucleoside phosphorylase (PNP-4) (Homo sapiens, UniProt P00491); assay: PNP-4 enzyme assay (radiochemical, [14C]-hypoxanthine formation from [14C]inosine); type: biochemical; details: human erythrocyte as enzyme source; activity table
T1 construct: using human erythrocyte as the enzyme source; from tissue; host or cells: human erythrocyte
T1 sequence (P00491 1-289): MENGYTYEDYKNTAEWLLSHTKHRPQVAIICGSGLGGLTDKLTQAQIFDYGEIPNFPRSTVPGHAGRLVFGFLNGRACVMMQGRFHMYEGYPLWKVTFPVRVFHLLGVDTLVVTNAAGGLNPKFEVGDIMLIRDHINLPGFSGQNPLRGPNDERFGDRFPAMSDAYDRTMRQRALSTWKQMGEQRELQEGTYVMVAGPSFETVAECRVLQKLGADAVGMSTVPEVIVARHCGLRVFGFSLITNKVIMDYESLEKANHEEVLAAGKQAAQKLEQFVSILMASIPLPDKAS
Experimental: In the purine nucleoside phosphorylase (PNP-4) enzyme assay, an IC50 is achieved at a dose of about from 0.9 to 3.18 micromoles on selected compounds of the present invention. PNP-4 activity for the compounds of Formula I is measured radiochemically by measuring the formation of [^14 -C]-hypoxanthine from [^14 -C]inosine [Biomedicine 33:39 (1980)]using human erythrocyte as the enzyme source. An in vivo inhibition of purine nucleoside phosphorylase (HPLC-1) enzyme assay is used essentially as disclosed in the Annals of New York Academy of Sciences 451:313 (1985) to further show the activity of the compounds of Formula I of the present invention. […] Since removal of T-cells or modulation of T-cells are beneficial in the treatment of autoimmune diseases, these compounds being selectively cytotoxic to T-cells will, therefore, be useful in their treatment. […] Clinically it has been shown that modulation and/or removal of T-cells by thoracic duct drainage, lymphapheresis, or total lymphoid irradiation gave partial to complete relief from rheumatoid arthritis in patients who were totally refractory to other forms of therapy [A. Tanay, et al, Arthritis and Rheumatism 30(1):1 (1987); S. Strober, et al, Annual of Internal Medicine V-102(4):441-449 (1985); H. G. Nusslein, et al, Arthritis and Rheumatism V-28(11):1205-1210 (1985); E. Brahn, et al, ibid V-27(5):481-487 (1984); and J. Karsh, et al, ibid V 24(7):867-873. (1981)]. […] N. Ellis, et al, JAMA V-256( 22):3110-3116 (Dec. 12, 1986).

skin graft in dogs = details: cited from earlier work

**Q.** With `Nc1nc2c(Cc3ccsc3)c(Br)[nH]c2c(=O)[nH]1` [Example 3, 2-Amino-6-bromo-3,5-dihydro-7-(3-thienylmethyl)-4H-pyrrolo[3,2-d]pyrimidin-4-one] as the molecule, how does the pIC50 [1] read?
**A.** The pIC50 was 5.16.

**Q.** For `Nc1nc2c(nc(N)n2[C@@H]2O[C@H](CO)[C@@H](O)[C@H]2O)c(=O)[nH]1` [8-Aminoguanosine], which “inhibition of rejection of skin graft” value (skin graft in dogs) is on record?
**A.** Its value is “efficacious for inhibiting rejection of skin graft in dogs”.

**Q.** With `Nc1nc2c(Cc3ccsc3)c(F)[nH]c2c(=O)[nH]1` [Example 8, 2-Amino-6-fluoro-3,5-dihydro-7-(3-thienylmethyl) 4H-pyrrolo[3,2-d]pyrimidin-4 one] as the molecule, how does the pIC50 [1] read?
**A.** Its pIC50 is 6.82.

**Q.** With `Nc1nc2c(Cc3ccsc3)c(I)[nH]c2c(=O)[nH]1` [Example 5] as the molecule, how does the pIC50 [1] read?
**A.** The pIC50 was less than 4.52.

**Q.** With `Nc1nc2c(Cc3ccsc3)c(Cl)[nH]c2c(=O)[nH]1` [Example 6, 2-Amino-6-chloro-3,5-dihydro-7-(3-thienylmethyl)-4H-pyrrolo[3,2-d]pyrimidin-4-one] as the molecule, how does the pIC50 [1] read?
**A.** The pIC50 was 5.56.
